The assay is described as follows: Whitening of extracted teeth, CIE whiteness index by image analysis. How it is done:
Extracted caries-free teeth collected from dental hospitals were briefly brushed to remove any skin tissue attached. The teeth were then sterilized by autoclaving at 121° C. for 25 mins. All teeth were stored in an airtight plastic container containing a solution of Phosphate Buffered Saline (PBS) with a few crystals of thymol as an antibacterial agent until required for use. Twenty four hours before the study, each tooth was glued onto a numbered glass microscope slide. A pellicle was formed on the teeth by soaking in sterilised artificial saliva with the composition set out in Table 1.
After the 24 hr period of pellicle formation, the teeth were then brushed with an Oral B Plaque remover electric toothbrush for 2 mins, with a standard fluoride toothpaste, the composition of which is set out in Table 2:
Excess toothpaste was removed by briefly rinsing each tooth with deionised water. The teeth were returned to a fresh aliquot of artificial saliva and then measured. The measured whiteness index (determined by image analysis as described below) was taken as the baseline against which subsequent measurements were compared.
[…] Teeth were returned to a fresh aliquot of artificial saliva and a Post-Bleach measurement taken.
FWA was applied to the teeth by immersion in a 500 ppm FWA solution (50 mg FWA in 100 ml deionised water stirred for 30 minutes) for 1 hr. The teeth were returned to a fresh aliquot of artificial saliva and a post-FWA measurement taken.
Each tooth was imaged using a Kodak DCS 410 camera, which was mounted 10 cm above and perpendicular to the specimen, using aperture F11 and a shutter speed of 1/10 second. The standardised lighting source comprised two UV tubes and two 6500K ‘daylight’ tubes. Each image was transferred to Adobe PhotoShop software. For each image, an 8 mm^2 area was analysed and an average Adobe L,a,b reading obtained using the software. All L,a,b values were converted to CIE L*,a*,b* and then to the CIE whiteness index W, using the equation: W=Y+800(xn−x)+1700(yn−y) where Y is the Y-tristimulus value of the specimen, x and y, and xn and yn are the chromaticity coordinates for the specimen and for the perfect diffuser for the CIE 1931 2° Standard Observer, respectively. Results

As to `OO` [Example H2O2, hydrogen peroxide], under “H2O2 alone: immersion in 15% hydrogen peroxide solution for 1 hr, vs baseline, six groups of three teeth”, the “average percentage increase in whiteness index” value is 17%. Further, for the setting “treatment with 15% H2O2, each group of teeth, vs baseline”, the “change in whiteness index (in words)” value is “increase in whiteness index”.

Consider `O=S(=O)(O)c1ccccc1C=Cc1ccc(-c2ccc(C=Cc3ccccc3S(=O)(=O)O)cc2)cc1` [FWA, 4,4′-bis(2-sulfostyryl)biphenyl], for which the “change in whiteness index (in words) compared with treatment with H2O2 alone” value (FWA treatment after 15% H2O2 bleaching) is reported as “further increase in whiteness”. The “average percentage increase in whiteness index” value (combined treatment using chlorine dioxide (sodium chlorite bleach) and FWA (Tinopal CBS-X), vs baseline) is given as 41%; the “average percentage increase in whiteness index” value (combined treatment: 15% H2O2 1 hr, then 500 ppm FWA solution 1 hr, vs baseline, six groups of three teeth) was 24%.

For the compound sodium chlorite, the “average percentage increase in whiteness index” value (bleach alone: sodium chlorite (generating chlorine dioxide in use) in place of H2O2, vs baseline) is on record as 8%.
